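Tested at 5 concentrations; 48 h exposure; 96-well plates; endpoints linearly interpolated, else capped at highest concentration. At the GI50, growth is halved.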 Active and inactive are the calls of the source. No stated cut-off is given here; in the data, active = GI50 up to about 1.1 µM and inactive = higher.
Tests used:
Assay in all cases: growth of human tumour cells (NCI), 48 h
NCI-H522 = system: NCI-H522
K562 = system: K562
NCI-H460 = system: NCI-H460
COLO 205 = system: COLO 205
NCI/ADR-RES = system: NCI/ADR-RES
SK-MEL-5 = system: SK-MEL-5
TK-10 = system: TK-10
UACC-62 = system: UACC-62
PC-3 = system: PC-3
LOX IMVI = system: LOX IMVI
M14 = system: M14
SR = system: SR
UACC-257 = system: UACC-257
SK-OV-3 = system: SK-OV-3
SK-MEL-28 = system: SK-MEL-28
HCC 2998 = system: HCC 2998
RPMI-8226 = system: RPMI-8226
OVCAR-3 = system: OVCAR-3
786-0 = system: 786-0
HCT-15 = system: HCT-15

Row | Structure (SMILES) | GI50 (NCI-H522) | GI50 (K562) | GI50 (NCI-H460) | GI50 (COLO 205) | GI50 (NCI/ADR-RES) | GI50 (SK-MEL-5) | GI50 (TK-10) | GI50 (UACC-62) | GI50 (PC-3) | GI50 (LOX IMVI) | GI50 (M14) | GI50 (SR) | GI50 (UACC-257) | GI50 (SK-OV-3) | GI50 (SK-MEL-28) | GI50 (HCC 2998) | GI50 (RPMI-8226) | GI50 (OVCAR-3) | GI50 (786-0) | GI50 (HCT-15) [µM]
1 | COc1cc([C@@H]2c3[nH]c4ccccc4c3C(Nc3ccc([N+](=O)[O-])cc3)[C@H]3COC(=O)N23)cc(OC)c1O (stereo not given in full) | 0.407 µM (active) | 0.179 µM (active) | < 0.0181 µM (active) | 0.548 µM (active) | > 86.3 µM (inactive) | 0.0914 µM (active) | 0.446 µM (active) | 0.195 µM (active) | 0.698 µM (active) | 0.0822 µM (active) | 0.321 µM (active) | 0.0481 µM (active) | 0.857 µM (active) | 0.269 µM (active) | 0.291 µM (active) | 0.392 µM (active) | 0.0652 µM (active) | 0.382 µM (active) | 0.177 µM (active) | 1.96
2 | COC(=O)C1(Cc2ccccc2)Cc2c(C)ccc(C)c2C1=O (stereo not given) | 19.2 µM (inactive) | 30.5 µM (inactive) | 31.9 µM (inactive) | 12.4 µM (inactive) | 28.1 µM (inactive) | 11.3 µM (inactive) | 49 µM (inactive) | 11.5 µM (inactive) | 26.3 µM (inactive) | 17.2 µM (inactive) | 25.1 µM (inactive) | 23.9 µM (inactive) | 25.8 µM (inactive) | 35.3 µM (inactive) | 42.5 µM (inactive) | 28 µM (inactive) | 29 µM (inactive) | 29.2 µM (inactive) | 37.5 µM (inactive) | 31
3 | COC(=O)Cc1cccc2c1CCC2=O | > 100 µM (inactive) | > 100 µM (inactive) | > 100 µM (inactive) | > 100 µM (inactive) | > 100 µM (inactive) | > 100 µM (inactive) | > 100 µM (inactive) | > 100 µM (inactive) | > 100 µM (inactive) | > 100 µM (inactive) | > 100 µM (inactive) | > 100 µM (inactive) | > 100 µM (inactive) | > 100 µM (inactive) | > 100 µM (inactive) | > 100 µM (inactive) | > 100 µM (inactive) | > 100 µM (inactive) | > 100 µM (inactive) | > 100
4 | c1cc(-c2ccsc2-c2ccsc2)cs1 | 26.1 µM (inactive) | > 27.2 µM (inactive) | > 100 µM (inactive) | > 87.1 µM (inactive) | > 100 µM (inactive) | 71.1 µM (inactive) | > 100 µM (inactive) | > 88.9 µM (inactive) | > 100 µM (inactive) | 55.3 µM (inactive) | > 100 µM (inactive) | 16.3 µM (inactive) | > 100 µM (inactive) | > 100 µM (inactive) | > 100 µM (inactive) | 46.8 µM (inactive) | 29.9 µM (inactive) | 23.8 µM (inactive) | > 93.3 µM (inactive) | 47.8
5 | O=[N+]([O-])c1c(F)c(F)c2c(c1F)N(CCCCCl)c1ccccc1S2 | 4.9 µM (inactive) | 2.05 µM (inactive) | 5.01 µM (inactive) | 14.4 µM (inactive) | 17.5 µM (inactive) | 12.2 µM (inactive) | 16.9 µM (inactive) | 13.9 µM (inactive) | 6.05 µM (inactive) | 1.58 µM (inactive) | 4.83 µM (inactive) | 1.89 µM (inactive) | 11.4 µM (inactive) | 19.7 µM (inactive) | 5.9 µM (inactive) | 2.86 µM (inactive) | 3.47 µM (inactive) | 7.01 µM (inactive) | 9.02 µM (inactive) | 1.6
6 | O=C(Nc1nc2ccccc2s1)c1cc([N+](=O)[O-])ccc1Cl | 3.4 µM (inactive) | 3.86 µM (inactive) | 1.91 µM (inactive) | 19.6 µM (inactive) | 6.89 µM (inactive) | 7.6 µM (inactive) | 66.4 µM (inactive) | 7.5 µM (inactive) | 7.24 µM (inactive) | 3.44 µM (inactive) | 8.97 µM (inactive) | 1.54 µM (inactive) | 42.2 µM (inactive) | 16 µM (inactive) | > 32.1 µM (inactive) | 12.6 µM (inactive) | 4.81 µM (inactive) | 16.7 µM (inactive) | 11.1 µM (inactive) | 4.63

Reference: ChEMBL document CHEMBL1201862, “PubChem BioAssay data set” (2004)
